Here are results for 4 compounds from patent publication EP0970697A1, “CERVICAL MATURING AGENT” (TORAY INDUSTRIES, INC., priority 1997, dated 1999).

Read-outs that look alike come from different tables or passages of the source.

In assay [1] the test system is cervical canal. Nature of the assay: Cervical ripening action (maximum tension and slope in extension of the extracted cervical canal after intravaginal administration). In kind it is in vivo, Hartley mature guinea pigs. Conditions: 10µg, intravaginal administration three times, cervical canal extracted 4 hours after final administration; maximum tension and slope compared with the base administration group, Dunnett's method. The procedure:
The cervical ripening actions of compounds of formula (I) were examined by using Hartley mature guinea pigs (nine-week-old, clean animals).
In order to compare with these compounds, the action of BPS was also tested. Experiment was carried out for 4 to 14 samples per group.
In the test, 100 µl of a test medicine or a base thereof was administered to the vagina at 9 o'clock and 17 o'clock, and 9 o'clock on the next day, and a guinea pig was dissected to extract the cervical canal 4 hours after the final administration. Then, the cervical canal was extended at a rate of 2 mm/min to measure tension generated in the tissue with time. As an index for cervical ripening, the maximum tension generated up to breakage of the tissue, and the slope obtained by dividing the maximum tension by the distance of extension were examined. It is thought that decreases in these values indicate ripening of the cervical canal. A test medicine was dissolved in phosphate buffered saline, and then mixed with 3% hydroxypropyl cellulose.
Figs. 1 and 2 show changes in the maximum tension and the slope, respectively, caused by the test medicines. (*: P < 0.05, **: P < 0.01, Dunnett's method, comparison with the base administration group).

Assay [2] has as its system cervical canal. Conditions: mice; high dosage of 100 µg to 200 µg (about 2 to 4 mg per kg of weight) required; cited from earlier work.

For the compound `CC#CCC(C)[C@H](O)/C=C/[C@@H]1[C@H]2c3cccc(CCCC(=O)O)c3O[C@H]2C[C@H]1O` (mixture of isomers) [BPS, beraprost sodium, reference compound], the cervical ripening action result in the assay on cervical canal [1] is on record as “no cervical ripening action”; in the assay with cervical canal [2], “exhibits a cervical ripening action”. Regarding `O=C(O)COc1cccc2c1OC1CC(O)C(C=CC(O)C3CCCC3)C21` (centres unmarked) [Compound-1], the cervical ripening action entry in the assay on cervical canal [1] is “significant cervical ripening action”. Same read-out and setting: to `O=C(O)COc1cccc2c1OC1CC(O)C(C=CC(O)C3CCCCC3)C21` (centres unmarked) [Compound-2] belongs “significant cervical ripening action”. The same measure, in the same setting: in the case of `O=C(O)CCc1cccc2c1O[C@H]1C[C@@H](O)[C@H](/C=C/[C@@H](O)CC3CCCCC3)[C@@H]21` [Compound-3] it was “significant cervical ripening action”.
